Our source for the IC50 values is patent publication US11091488B2 (MISSION THERAPEUTICS LIMITED, priority 2015, dated 2021).

A value given as a limit tells only on which side of the number the result lay.

The target of the assay is USP30 (Homo sapiens (Human), UniProt Q70CQ3). In words: USP30 biochemical IC50 assay. The following applies: read-out: IC50 range; fluorescence polarisation, TAMRA labelled peptide linked to ubiquitin; 30 min pre-incubation, read after 2 hr.
Sequence of USP30 (Q70CQ3 57-517): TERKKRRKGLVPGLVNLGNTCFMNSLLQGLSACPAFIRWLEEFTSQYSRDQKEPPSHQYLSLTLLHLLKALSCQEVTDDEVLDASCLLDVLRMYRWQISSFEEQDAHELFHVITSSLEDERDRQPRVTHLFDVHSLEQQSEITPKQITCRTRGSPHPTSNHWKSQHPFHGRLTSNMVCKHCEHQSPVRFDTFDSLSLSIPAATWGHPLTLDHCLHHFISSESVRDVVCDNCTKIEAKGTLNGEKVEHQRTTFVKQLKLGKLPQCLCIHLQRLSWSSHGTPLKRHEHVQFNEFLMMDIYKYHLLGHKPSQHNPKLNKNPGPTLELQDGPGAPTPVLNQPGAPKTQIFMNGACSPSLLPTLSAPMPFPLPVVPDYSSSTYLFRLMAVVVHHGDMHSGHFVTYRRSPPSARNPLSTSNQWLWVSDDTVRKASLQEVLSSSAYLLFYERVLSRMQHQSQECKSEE
Experimental: USP30 Biochemical IC50 Assay
Dilution plates were prepared at 21 times the final concentration (2100 μM for a final concentration of 100 μM) in 50% DMSO in a 96-well polypropylene V-bottom plate (Greiner #651201). A typical 8-point dilution series to be 100, 30, 10, 3, 1, 0.3, 0.1, 0.03 μM final. Reactions were performed in duplicate in black 384 well plates (small volume, Greiner 784076) in a final reaction volume of 21 μl. Either 1 μl of 50% DMSO or diluted compound was added to the plate. USP30 was diluted in reaction buffer (40 mM Tris, pH 7.5, 0.005% Tween 20, 0.5 mg/ml BSA, 5 mM—beta-mercaptoethanol) to the equivalent of 0.05 μl/well and 10 μl of diluted USP30 was added to the compound. Enzyme and compound were incubated for 30 min at room temp. Reactions were initiated by the addition of 50 nM of TAMRA labelled peptide linked to ubiquitin via an iso-peptide bond as fluorescence polarisation substrate. Reactions were read immediately after addition of substrate and following a 2 hr incubation at room temperature. Readings were performed on a Pherastar Plus (BMG Labtech). λ Excitation 540 nm; λ Emission 590 nm.
As for `C[C@H]1CN(C#N)C[C@@H]1N1CCN(c2cccc(N3CCN(C)CC3)c2)S1(=O)=O` [Example 40, (3S,4R)-3-methyl-4-(5-(3-(4-methylpiperazin-1-yl)phenyl)-1,1-dioxido-1,2,5-thiadiazolidin-2-yl)pyrrolidine-1-carbonitrile], the half-inhibitory concentration (IC50) was in the range of 0.1 to 1 µM.

Turning to `C[C@H]1CN(C#N)C[C@@H]1N1CCN(c2cccc(N3CCOCC3)c2)S1(=O)=O` [Example 41, (3S,4R)-3-methyl-4-(5-(3-morpholinophenyl)-1,1-dioxido-1,2,5-thiadiazolidin-2-yl)pyrrolidine-1-carbonitrile], the concentration for half-maximal inhibition (IC50) was 0.1 to 1 µM.

Turning to `COc1ccc(N2CCN([C@@H]3CCN(C#N)C3)S2(=O)=O)cc1-c1ccccc1` [Example 42, (R)-3-(5-(6-methoxy-[1,1′-biphenyl]-3-yl)-1,1-dioxido-1,2,5-thiadiazolidin-2-yl)pyrrolidine-1-carbonitrile], the IC50 is below 0.1 µM.

In the case of `N#CN1CC[C@@H](N2CCN(c3ccc4nc(C(F)(F)F)[nH]c4c3)S2(=O)=O)C1` [Example 44, (R)-3-(1,1-dioxido-5-(2-(trifluoromethyl)-1H-benzo[d]imidazol-5-yl)-1,2,5-thiadiazolidin-2-yl)pyrrolidine-1-carbonitrile], the IC50 lay in the range of 0.1 to 1 µM.

As to `N#CN1CC[C@@H](NS(=O)(=O)Nc2ccc3nc(C(F)(F)F)[nH]c3c2)C1` [Example 45], the concentration for half-maximal inhibition (IC50) lay within 1 to 10 µM.

For `N#CN1CC[C@@H](N2CCCN(c3ccc4nc(C(F)(F)F)[nH]c4c3)S2(=O)=O)C1` [Example 46, (R)-3-(1,1-dioxido-6-(2-(trifluoromethyl)-1H-benzo[d]imidazol-6-yl)-1,2,6-thiadiazinan-2-yl)pyrrolidine-1-carbonitrile], the IC50 was 1 to 10 µM.

With `N#CN1CC[C@H](N2CCN(c3cccc(-c4ccccn4)c3)S2(=O)=O)C1` [Example 47, (S)-3-(1,1-dioxido-5-(3-(pyridin-2-yl)phenyl)-1,2,5-thiadiazolidin-2-yl)pyrrolidine-1-carbonitrile], the IC50 lay in the range of 0.1 to 1 µM.

On to `N#CN1CC[C@H](N2CCN(c3cccc(-c4cccnc4)c3)S2(=O)=O)C1` [Example 48, (S)-3-(1,1-dioxido-5-(3-(pyridin-3-yl)phenyl)-1,2,5-thiadiazolidin-2-yl)pyrrolidine-1-carbonitrile], for which the IC50 was in the range of 0.1 to 1 µM.

With `N#CN1CC[C@@H](N2CCN(c3ccnc(N4CCOCC4)c3)S2(=O)=O)C1` [Example 50, (R)-3-(5-(2-morpholinopyridin-4-yl)-1,1-dioxido-1,2,5-thiadiazolidin-2-yl)pyrrolidine-1-carbonitrile], the IC50 was below 0.1 µM.

Turning to `N#CN1CC[C@@H](N2CCN(c3nccc(N4CCOCC4)n3)S2(=O)=O)C1` [Example 51, (R)-3-(5-(4-morpholinopyrimidin-2-yl)-1,1-dioxido-1,2,5-thiadiazolidin-2-yl)pyrrolidine-1-carbonitrile], the IC50 lay within 0.1 to 1 µM.

As to `CN1CCN(c2cc(N3CCN([C@@H]4CCN(C#N)C4)S3(=O)=O)ccn2)CC1` [Example 52, (R)-3-(5-(2-(4-methylpiperazin-1-yl)pyridin-4-yl)-1,1-dioxido-1,2,5-thiadiazolidin-2-yl)pyrrolidine-1-carbonitrile], the IC50 is 0.1 to 1 µM.

On to `CO[C@@H]1CCN(c2cccc(N3CCN([C@@H]4CCN(C#N)C4)S3(=O)=O)c2)C1` [Example 53, (R)-3-(5-(3-((R)-3-methoxypyrrolidin-1-yl)phenyl)-1,1-dioxido-1,2,5-thiadiazolidin-2-yl)pyrrolidine-1-carbonitrile], for which the IC50 lay within 0.1 to 1 µM.

Turning to `CO[C@@H]1CCN(c2cc(N3CCN([C@@H]4CCN(C#N)C4)S3(=O)=O)ccn2)C1` [Example 54, (R)-3-(5-(2-((R)-3-methoxypyrrolidin-1-yl)pyridin-4-yl)-1,1-dioxido-1,2,5-thiadiazolidin-2-yl)pyrrolidine-1-carbonitrile], the IC50 lay in the range of 0.1 to 1 µM.

As to `COC1CN(c2cc(N3CCN([C@@H]4CCN(C#N)C4)S3(=O)=O)ccn2)C1` [Example 55, (R)-3-(5-(2-(3-methoxyazetidin-1-yl)pyridin-4-yl)-1,1-dioxido-1,2,5-thiadiazolidin-2-yl)pyrrolidine-1-carbonitrile], the 50% inhibitory concentration (IC50) was 0.1 to 1 µM.

For the compound `COCCN(CCOC)c1cc(N2CCN([C@@H]3CCN(C#N)C3)S2(=O)=O)ccn1` [Example 56, (R)-3-(5-(2-(bis(2-methoxyethyl)amino)pyridin-4-yl)-1,1-dioxido-1,2,5-thiadiazolidin-2-yl)pyrrolidine-1-carbonitrile], the half-maximal inhibitory concentration (IC50) lay in the range of 0.1 to 1 µM.

On to `N#CN1CCC(NS(=O)(=O)Nc2cccc(-c3ccccc3)c2)C1` (stereo not shown) [Example 57, N-biphenyl-3-yl-N′-(1-cyanopyrrolidin-3-yl)sulfuric diamide], for which the IC50 was 0.1 to 1 µM.

Take `N#CN1CCC(NS(=O)(=O)Nc2ccc(-c3ccccc3)cc2)C1` (stereo not shown) [Example 58, N-biphenyl-4-yl-N′-(1-cyanopyrrolidin-3-yl)sulfuric diamide]: the IC50 lay within 0.1 to 1 µM.

On to `N#CN1CCC(NS(=O)(=O)N2CCC(c3ccccc3)CC2)C1` (stereo not shown) [Example 59, N-(1-cyanopyrrolidin-3-yl)-4-phenylpiperidine-1-sulfonamide], for which the IC50 was in the range of 0.1 to 1 µM.

For `N#CN1CCC(NS(=O)(=O)N2CCN(c3ccccc3)CC2)C1` (stereo not shown) [Example 60, N-(1-cyanopyrrolidin-3-yl)-4-phenylpiperazine-1-sulfonamide], the 50% inhibitory concentration (IC50) fell in the range of 0.1 to 1 µM.

For `N#CN1CCC(NS(=O)(=O)N2CCc3ccccc32)C1` (stereo not shown) [Example 61, N-(1-cyanopyrrolidin-3-yl)indoline-1-sulfonamide], the IC50 lay within 1 to 10 µM.

In the case of `N#CN1CC[C@@H](NS(=O)(=O)N2CCc3ccccc3C2)C1` [Example 62, (R)—N-(1-cyanopyrrolidin-3-yl)-3,4-dihydroisoquinoline-2(1H)-sulfonamide], the IC50 is 1 to 10 µM.

With `N#CN1CC[C@@H](NS(=O)(=O)N2CCc3cc(-c4ccccc4)ccc32)C1` [Example 63, (R)—N-(1-cyanopyrrolidin-3-yl)-5-phenylindoline-1-sulfonamide], the IC50 was 0.1 to 1 µM.

As for `N#CN1CC[C@@H](NS(=O)(=O)N2CCc3c(-c4ccccc4)cccc32)C1` [Example 64, (R)—N-(1-cyanopyrrolidin-3-yl)-4-phenylindoline-1-sulfonamide], the IC50 fell in the range of 0.1 to 1 µM.

As to `COc1ccc2c(c1)CCN(S(=O)(=O)N[C@@H]1CCN(C#N)C1)C2` [Example 65, (R)—N-(1-cyanopyrrolidin-3-yl)-6-methoxy-3,4-dihydroisoquinoline-2(1H)-sulfonamide], the IC50 was in the range of 0.1 to 1 µM.

On to `CN1c2ccccc2N([C@@H]2CCN(C#N)C2)S1(=O)=O` [Example 66, (R)-3-(3-methyl-2,2-dioxidobenzo[c][1,2,5]thiadiazol-1(3H)-yl)pyrrolidine-1-carbonitrile], for which the IC50 lay in the range of 1 to 10 µM.

For `N#CN1CC[C@@H](N2c3ccccc3N(Cc3ccccc3)S2(=O)=O)C1` [Example 67, (R)-3-(3-benzyl-2,2-dioxidobenzo[c][1,2,5]thiadiazol-1(3H)-yl)pyrrolidine-1-carbonitrile], the IC50 lay in the range of 0.1 to 1 µM.

For the compound `N#CN1CC[C@@H](N2c3ccccc3N(Cc3cccnc3)S2(=O)=O)C1` [Example 68, (R)-3-(2,2-dioxido-3-(pyridin-3-ylmethyl)benzo[c][1,2,5]thiadiazol-1(3H)-yl)pyrrolidine-1-carbonitrile], the IC50 was in the range of 1 to 10 µM.

With `N#CN1CC[C@@H](N2Cc3ccccc3N(Cc3ccccc3)S2(=O)=O)C1` [Example 69, (R)-3-(1-benzyl-2,2-dioxido-1,4-dihydro-3H-benzo[c][1,2,6]thiadiazin-3-yl)pyrrolidine-1-carbonitrile], the IC50 was 0.1 to 1 µM.

Turning to `Cn1cc(-c2ccc3c(c2)NS(=O)(=O)N([C@@H]2CCN(C#N)C2)C3)cn1` [Example 71, (R)-3-(7-(1-methyl-1H-pyrazol-4-yl)-2,2-dioxido-1,4-dihydro-3H-benzo[c][1,2,6]thiadiazin-3-yl)pyrrolidine-1-carbonitrile], the IC50 was in the range of 0.1 to 1 µM.

For the compound `N#CN1CC[C@@H](N2Cc3ccc(-c4ccccc4)cc3NS2(=O)=O)C1` [Example 72, (R)-3-(2,2-dioxido-7-phenyl-1,4-dihydro-3H-benzo[c][1,2,6]thiadiazin-3-yl)pyrrolidine-1-carbonitrile], the IC50 fell in the range of 0.1 to 1 µM.

On to `CN1c2cc(-c3ccccc3)ccc2CN([C@@H]2CCN(C#N)C2)S1(=O)=O` [Example 73, (R)-3-(1-methyl-2,2-dioxido-7-phenyl-1,4-dihydro-3H-benzo[c][1,2,6]thiadiazin-3-yl)pyrrolidine-1-carbonitrile], for which the IC50 lay in the range of 0.1 to 1 µM.

As to `N#CN1CC[C@@H](N2Cc3cc(-c4ccccc4)ccc3NS2(=O)=O)C1` [Example 75, (R)-3-(2,2-dioxido-6-phenyl-1,4-dihydro-3H-benzo[c][1,2,6]thiadiazin-3-yl)pyrrolidine-1-carbonitrile], the IC50 lay within 1 to 10 µM.

Turning to `CN(c1ccccc1)S(=O)(=O)N(C)C1CCN(C#N)C1` (stereo not shown) [Example 76, N-(1-cyanopyrrolidin-3-yl)-N,N′-dimethyl-N′-phenylsulfuric diamide], the IC50 lay in the range of 1 to 10 µM.

As to `N#CN1CC[C@@H](N2Cc3cccc(N4CCOCC4)c3NS2(=O)=O)C1` [Example 77, (R)-3-(8-morpholino-2,2-dioxido-1,4-dihydro-3H-benzo[c][1,2,6]thiadiazin-3-yl)pyrrolidine-1-carbonitrile], the IC50 was in the range of 1 to 10 µM.
